In ChEMBL document CHEMBL1201862, “PubChem BioAssay data set” (2004):
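Each compound was tested at five concentrations against cells in 96-well plates for 48 hours. GI50 marks 50% less growth.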 Active and inactive are the calls of the source. Rule as the data show it: active = GI50 up to about 1.1 µM and inactive = higher.

How the values were obtained:
Assay in all cases: NCI tumour cell line growth inhibition, 48 h
[1] = test system: A549
[2] = test system: ACHN
[3] = test system: EKVX
[4] = test system: HCC 2998
[5] = test system: HOP-92
[6] = test system: HT-29
[7] = test system: KM12
[8] = test system: MDA-N
[9] = test system: NCI-H522
[10] = test system: OVCAR-3
[11] = test system: OVCAR-4
[12] = test system: PC-3
[13] = test system: SK-MEL-2
[14] = test system: SK-MEL-5
[15] = test system: SN12C
[16] = test system: SNB-19
[17] = test system: SR
[18] = test system: CCRF-CEM
[19] = test system: SK-OV-3

Compound | GI50 [1] | GI50 [2] | GI50 [3] | GI50 [4] | GI50 [5] | GI50 [6] | GI50 [7] | GI50 [8] | GI50 [9] | GI50 [10] | GI50 [11] | GI50 [12] | GI50 [13] | GI50 [14] | GI50 [15] | GI50 [16] | GI50 [17] | GI50 [18] | GI50 [19]
CC(C)OC(=O)C1=C2c3ncccc3C(=O)N2[C@@H](Cl)[C@H](Cl)[C@H]1Cl | > 100 µM (inactive) | > 100 µM (inactive) | > 100 µM (inactive) | > 100 µM (inactive) | 46.3 µM (inactive) | > 100 µM (inactive) | > 100 µM (inactive) | 50.9 µM (inactive) | 26.2 µM (inactive) | > 100 µM (inactive) | > 100 µM (inactive) | 56.6 µM (inactive) | > 100 µM (inactive) | 83 µM (inactive) | 21.8 µM (inactive) | > 100 µM (inactive) | 26.5 µM (inactive) | – | –
CSc1ncc2c(n1)-c1ccccc1OC2N1CCCC1 (stereo not given) | > 100 µM (inactive) | 60.8 µM (inactive) | 42.1 µM (inactive) | – | > 100 µM (inactive) | > 100 µM (inactive) | > 100 µM (inactive) | > 100 µM (inactive) | 36.6 µM (inactive) | 47.4 µM (inactive) | 21 µM (inactive) | 57.3 µM (inactive) | > 100 µM (inactive) | > 100 µM (inactive) | 71 µM (inactive) | > 100 µM (inactive) | > 100 µM (inactive) | 58.5 µM (inactive) | > 100 µM (inactive)
CCOC(=O)/C=C(/C)Nc1nc2c(c(C(=O)OC)c1C#N)CCCC2 | > 100 µM (inactive) | > 100 µM (inactive) | 86.1 µM (inactive) | > 100 µM (inactive) | > 100 µM (inactive) | > 100 µM (inactive) | > 100 µM (inactive) | > 100 µM (inactive) | > 100 µM (inactive) | – | 44.7 µM (inactive) | > 100 µM (inactive) | > 100 µM (inactive) | > 100 µM (inactive) | > 100 µM (inactive) | > 100 µM (inactive) | > 100 µM (inactive) | > 100 µM (inactive) | > 100 µM (inactive)
COC1(OC)N=C(N)C2(C#N)C(c3ccccc3)NC3=C(CCC3)C12C#N (stereo not given) | > 100 µM (inactive) | > 100 µM (inactive) | > 100 µM (inactive) | > 100 µM (inactive) | > 100 µM (inactive) | > 100 µM (inactive) | > 100 µM (inactive) | > 100 µM (inactive) | > 100 µM (inactive) | – | > 100 µM (inactive) | > 100 µM (inactive) | > 100 µM (inactive) | > 100 µM (inactive) | > 100 µM (inactive) | > 100 µM (inactive) | > 100 µM (inactive) | > 100 µM (inactive) | > 100 µM (inactive)
CC(C)CCOC(=O)NC(Nc1ccc(F)cc1)(C(F)(F)F)C(F)(F)F | 23.1 µM (inactive) | 1.66 µM (inactive) | 60.7 µM (inactive) | 21.7 µM (inactive) | 44.2 µM (inactive) | 39.8 µM (inactive) | 5.98 µM (inactive) | 2.81 µM (inactive) | 25.8 µM (inactive) | 37.4 µM (inactive) | – | 28.1 µM (inactive) | 53.1 µM (inactive) | 12.6 µM (inactive) | 36.1 µM (inactive) | 62.2 µM (inactive) | 0.679 µM (active) | 19.5 µM (inactive) | 63 µM (inactive)
CC(C)CCn1nc(N)c2nc3ccccc3nc21 | > 100 µM (inactive) | 41.3 µM (inactive) | > 100 µM (inactive) | > 100 µM (inactive) | > 100 µM (inactive) | 64.7 µM (inactive) | > 100 µM (inactive) | > 100 µM (inactive) | > 100 µM (inactive) | > 100 µM (inactive) | > 100 µM (inactive) | > 100 µM (inactive) | > 100 µM (inactive) | – | > 100 µM (inactive) | > 100 µM (inactive) | 15.2 µM (inactive) | 46.2 µM (inactive) | > 100 µM (inactive)
CC1C2CC(C(S(=O)(=O)O)C2=O)C1(C)C (stereo not given) | – | > 100 µM (inactive) | > 100 µM (inactive) | > 100 µM (inactive) | > 100 µM (inactive) | > 100 µM (inactive) | > 100 µM (inactive) | > 100 µM (inactive) | > 100 µM (inactive) | > 100 µM (inactive) | > 100 µM (inactive) | > 100 µM (inactive) | – | – | > 100 µM (inactive) | > 100 µM (inactive) | > 100 µM (inactive) | > 100 µM (inactive) | > 100 µM (inactive)
Nc1ccc(-c2nc3ccc(F)cc3s2)cc1I | > 100 µM (inactive) | > 100 µM (inactive) | > 51.6 µM (inactive) | 0.121 µM (active) | 24.8 µM (inactive) | 56.1 µM (inactive) | > 100 µM (inactive) | > 100 µM (inactive) | > 63.1 µM (inactive) | – | – | > 100 µM (inactive) | > 100 µM (inactive) | > 74.6 µM (inactive) | > 100 µM (inactive) | > 61.2 µM (inactive) | > 76.2 µM (inactive) | > 21.2 µM (inactive) | 97.3 µM (inactive)
